Experiment: Human HepG2 cell viability assay in 384 well format
Assay type: toxicity, cell-based
Set-up: dose 125 nL, time 70.5 hour; concentration not given beside the values
Settings: HepG2 cells, read-out: Inhibition

SMILES	cytotoxicity at 70.5 h
COc1cccc(COCC(=O)N2CCCC(n3cncn3)C2)c1 (stereo unspecified)	-1.04%
CN(C)C(C(=O)N1CCN(S(N)(=O)=O)CC1)c1ccccc1F (stereo unspecified)	-3.36%
O=C(N1CCCO1)[C@]12COC[C@H]1CN(Cc1cccnc1)C2	-7.03%
CN(C(=O)Cn1nc(-c2ccc(Br)cc2)ccc1=O)C1CCS(=O)(=O)C1 (stereo unspecified)	-22.4%
N#Cc1ccc(NC2CCN(Cc3ccccn3)CC2)c(F)c1	-9.28%
CN(Cc1cccnc1)[C@@H]1CN(CC2CC2)[C@@H]2CCCO[C@H]12	-2.78%
Cc1ccc(N2C[C@H]3OCC[C@H]3[C@H](C(=O)NCC3CC3)C2)nn1	-12.5%
O=C(CC1CCCC1)NCCS(=O)(=O)N1CCN(c2ccccn2)CC1	-13%
O=C(CSCC1CC1)N1CCCC2(CCC(=O)N(CC3CC3)C2)C1 (stereo unspecified)	-25.9%
Cc1noc(C)c1-c1nc(C2CCCNC2)ccc1CO (stereo unspecified)	-5.83%
Cc1noc(CN2CCN(C(C)C(=O)NCc3cccs3)CC2)n1 (stereo unspecified)	13.6%
CC(=O)N1CCN(C(=O)NCc2cccnc2OC(C)C)CC1	26.4%
Cc1nc(CN2C[C@@H]3CN(C(=O)c4cccn4C)C[C@@H]3C2=O)cs1	-3.56%
CN[C@@H](C)C(=O)N(Cc1cccc(C)c1)Cc1ccccc1OC	14.5%
Cc1cccc(-c2nc(CN3CCc4c(ncn4C)C3)no2)c1	20.5%
O=C1CC2(CCCNC2)C(=O)N1Cc1ccccc1 (stereo unspecified)	18.9%
Cc1cnn(CCC(=O)N2CCN(c3nccs3)CC2)c1	17.7%
CCn1cc(N2Cc3nc(N4CCC(O)CC4)ncc3C2=O)cn1	2.23%
c1ccc(CCCN2CCCC2Cn2cncn2)cc1 (stereo unspecified)	-3.86%
O=C1[C@@H]2CCN(Cc3ccc(F)cc3)C[C@@H]2OCCN1c1cccnc1	-3.72%
COC(=O)N1CCc2ccccc2C1C(=O)NCc1ccco1 (stereo unspecified)	-10.1%
Cc1cc(-c2nnc(SCC(=O)O)n2C(C)c2ccccc2)nn1C (stereo unspecified)	-0.677%
COC(=O)NCC(=O)N1CCCC1c1nc(-c2ccccc2F)c[nH]1 (stereo unspecified)	-3.18%

SMILES	cytotoxicity at 70.5 h
CN1C(=O)C2(CCN(C(=O)C3CCOCC3)CC2)c2ccccc21	-3.31%
CC(=O)N1C[C@@H]2CC[C@H](C1)N(S(=O)(=O)c1cc(F)ccc1C)C2	-10.6%
Cc1ccc(C(=O)NCc2cc(F)ccc2N2CCCN(C)CC2)o1	1.17%
COC(=O)C1CCN(C(=O)Cn2ccc(-c3ccsc3)n2)CC1	-3.32%
Cn1cnc2c(-c3ccccc3)nc(C3CCNCC3)cc21	13.6%
CCc1ccc(C(=O)N2CCC3(CCC(=O)N(CCN(C)C)C3)CC2)[nH]1	-1.77%
Cc1ccccc1-n1cc(-c2ccnc(N3CCCC(O)C3)n2)cn1 (stereo unspecified)	-3.81%
N#CCCN(Cc1cccnc1)C(=O)c1ccc(-n2cnnn2)cc1	-12.1%
Cc1ccc(C)c(NC(=O)C(C)N2CCCN(c3nccs3)CC2)c1 (stereo unspecified)	-6.54%
N#Cc1cc(Cl)ccc1N1CCN(C(=O)C2CCC2)CC1	-1.06%
CC(C)Cc1cc(CC2(NCc3ccco3)COC2)no1	-3.13%
O=C(c1ccoc1)N1C[C@@H]2[C@@H](C1)OCC(=O)N2Cc1cccnc1	-3.91%
CC(C)C(=O)NC1CC2(CCN(CC(=O)N(C)C)CC2)c2ccccc21 (stereo unspecified)	-2.53%
Cc1cc(C(O)CCNS(=O)(=O)c2ccc(Cl)s2)c(C)o1 (stereo unspecified)	-15.4%
COc1ccc(Cl)cc1Nc1nc(N)c(C(C)=O)s1	-19.7%
Cn1cc(C2CCCN2C(=O)Cn2ccc3ccc(Cl)cc32)cn1 (stereo unspecified)	12.2%
Cc1nn(C)c2c(N3CCN(C(=O)C(C)C)CC3)ncnc12	-5.46%
c1coc(CN2Cc3ccnn3CC(COCC3CC3)C2)c1 (stereo unspecified)	-6.27%
N#Cc1cccnc1NC1CCN(c2ccccc2OC(F)F)C1=O (stereo unspecified)	17.8%
CCc1cnc(N)nc1NCc1ccc(OC)cc1OC	-0.135%
Cc1cc(=O)n(CC(=O)NCC2CCCO2)c(-c2cccc(Cl)c2)n1 (stereo unspecified)	-2.89%
Cc1noc(C)c1CN(C)c1ncnc2onc(C)c12	9.42%
Clc1ccc(C2NCCc3cc4c(cc32)OCCO4)cc1 (stereo unspecified)	32.9%

SMILES	cytotoxicity at 70.5 h
CCCS(=O)(=O)NCc1cccnc1OCC	-6.74%
O=S1(=O)NCC2(CCCN(Cc3cccnc3)C2)Oc2ncccc21 (stereo unspecified)	26.5%
Cc1nnc(N2CCOC(Cn3cccn3)C2)c(C#N)c1C (stereo unspecified)	-8.57%
O=C1CC(c2cccc(Cl)c2)c2snc(C(=O)O)c2N1 (stereo unspecified)	-5.92%
O=C(O)C1CN(Cc2cccc(-c3ccccn3)c2)CCO1 (stereo unspecified)	-9.06%
Cc1ccc(N2CCc3c(CN(C)Cc4ccco4)cncc3C2)nn1	-9.85%
O=C(CSCC1CC1)N1C[C@@H]2CC[C@H](C1)N(Cc1ccccn1)C2=O	-8.12%
O=C1CC2(CCN(CC3CC3)CC2)CN1Cc1cc(F)cc(F)c1	-2.81%
CCOC(=O)c1sc2ccsc2c1CN	-3.38%
CC(=O)NCc1ccc(S(=O)(=O)NC(=O)c2ccc3c(c2)COC3)cc1	-4.89%
CC(C)(C)N1CC(C(=O)NCc2noc(Cc3ccccc3)n2)CC1=O (stereo unspecified)	21.2%
CNC(=O)C1CN(C)CCN1c1nc(C)cc(C)n1 (stereo unspecified)	14.1%
CCOc1ccc(NC2CCN(C(C)C)C2=O)cn1 (stereo unspecified)	-3.98%
Cc1ccoc1-c1nnc(CNCC2CCCN2c2cccnn2)o1 (stereo unspecified)	-4.49%
Cc1cnc(CN2CCOC(Cn3nc(C)cc3C)C2)cn1 (stereo unspecified)	13.7%
CCn1ncc(CN(C)C(=O)c2cc(C(F)(F)F)n(C)n2)c1C	-17.2%
O=C(C1CCCC1)N1C[C@@H]2CCNC[C@@H]21	-9.43%
COCc1ncn2c1CN(C(=O)Nc1cccc(OC)c1)CC2	19.8%
CCCNC(=O)C1CCCN(c2ccc3nncn3n2)C1 (stereo unspecified)	-4.72%
Cc1nccc(CNC(=O)NCCOc2ccc(F)c(F)c2)n1	-2.22%
Cc1ccc2c(c1)c(CNC(=O)C1CC(=O)N(C3CCCC3)C1)nn2C (stereo unspecified)	16.8%
CNC(=O)c1noc(Cn2ncc3ccccc3c2=O)n1	0.589%
O=C(c1cccnc1N1CCOCC1)N1CCCC(n2ccnc2)C1 (stereo unspecified)	-6.03%

SMILES	cytotoxicity at 70.5 h
CS(=O)(=O)c1ccc(O[C@H]2COCCN(Cc3ccncc3)C2)cc1	-6.23%
CN(C)C(=O)N[C@H]1CN(C2CCOCC2)[C@@H]2CCCO[C@H]12	17.6%
CC(C)(O)CSCCNC(=O)c1cc(F)ccc1F	12.9%
CN(Cc1csc(-c2cnn(C)c2)n1)CC1CCN(CCO)CC1	18.5%
CC(C)(C)Nc1c(C2CCN(C(=O)C3CC3)CC2)nc2ccccn12	17.8%
Cc1ccc(C(=O)N2C[C@@H]3[C@@H](C2)OCC(=O)N3Cc2cccnc2)o1	-2.11%
CCc1ccc(C(=O)Nc2cc(N3CCNC3=O)ccc2Cl)o1	-5.46%
CCN(CC)C(=O)[C@@H]1C[C@H](NC(=O)c2cccn2C(C)C)CN1C	-9.19%
CCN1C(=O)C2(CCOCC2)c2cc(NC(=O)c3cnccn3)ccc21	1.85%
CCC1CN(CC(=O)NC2(C#N)CCCC2)CCN1CCOC (stereo unspecified)	-6.19%
CCn1nc(Br)nc1Sc1ccccc1NC(C)=O	-0.88%
Cc1ccc2nc(CN(C)Cc3n[nH]c4c3CCCCC4)[nH]c2c1C	-3.25%
CC[C@@]1(O)CCN(C(=O)c2ccc(-c3cccc(F)c3)cc2)C[C@H]1O	-7.02%
CS(=O)(=O)CCC(=O)NC1CC(c2cccc(Cl)c2)C1 (stereo unspecified)	14.6%
c1ccc(CCCN2CC[C@H](c3nnc(-c4cccnc4)o3)C2)cc1	-10.6%
CCn1c(C)nnc1CN(C)C1CCN(Cc2c(C)noc2C)C1 (stereo unspecified)	-4.05%
COc1cc(C)c(CNC(C)c2nc(C)cs2)cc1OC (stereo unspecified)	-2.23%
Cc1ccc(CC(=O)N2CCN(CC(O)c3ccccc3)CC2)cn1 (stereo unspecified)	1.06%
CC(c1cccs1)N(C)Cc1cnc(-c2ccccn2)nc1 (stereo unspecified)	3.52%
Cc1cnn(CC(=O)NC2CCCc3cc(OC(F)F)ccc32)c1 (stereo unspecified)	-6.6%
CC(=O)N(C)c1nc(CN2CCCCC2Cn2cncn2)cs1 (stereo unspecified)	-6.38%
O=S1(=O)C[C@@H]2[C@H](C1)N(Cc1cccc(O)c1)CCN2CC1CC1	-5.99%
Cn1ccnc1-c1ccc(NC[C@H]2CCc3ccccc3O2)nn1	18%

SMILES	cytotoxicity at 70.5 h
CC(C)c1nn(C)c(N(C)C)c1CNC1CCOc2ccccc21 (stereo unspecified)	7.29%
Cn1nc2c(cc1=O)CN(Cc1nc(-c3cccs3)no1)CC2	-14.3%
CCC(C)N(Cc1cccnc1)C(=O)c1ncccc1O (stereo unspecified)	-8.41%
CC(NC(=O)N1CCCN(C)CC1)c1ccc(S(N)(=O)=O)cc1 (stereo unspecified)	-4.13%
Cc1noc(C)c1CC(=O)NCC1(O)CCCN(c2ccccn2)C1 (stereo unspecified)	13.4%
Cc1cc(C)c2c(N(C)CC3CCOC3)ncnc2n1 (stereo unspecified)	-4.45%
COc1cc(F)c(-n2cnc(CCNC(C)=O)c2)cc1F	-10.8%
Cc1nccn1CCCC(=O)N1CCC2(CCC(=O)N(C(C)C)C2)CC1	-4.22%
Cc1ccc(CC(=O)N2CC[C@@H]3NC(=O)CC[C@@H]32)cc1	4.9%
O[C@@H]1CN(CC2CC2)CC[C@H]1N1CCN(c2ccccc2F)CC1	0.0849%
CC(=O)c1ccc(C(=O)N2C[C@@H]3CC[C@H](C2)N(CC2CCC2)C3)s1	-3.03%
CN(c1ncc(S(N)(=O)=O)s1)C1CCc2ccccc2C1 (stereo unspecified)	-10%
Cc1nc2cc(C(=O)N3C[C@@H](C(=O)O)[C@H](c4ccncc4)C3)ccc2[nH]1	-3.63%
Cc1ccc(C(=O)NCc2ccc(N(C)C)cc2)cn1	-10.4%
CCC1COCCN1C(=O)NCc1nccn1CCc1ccccc1 (stereo unspecified)	-5.72%
Cc1cc(C2CCCN(C(=O)COc3ccc(F)cc3F)C2)n[nH]1 (stereo unspecified)	-4.95%
N#Cc1cccc(S(=O)(=O)NC(=O)COCC(F)(F)F)c1	0.976%
CN1CCN(c2ccc(NCc3ccc(OC(F)(F)F)cc3)cn2)CC1	-11.2%
Cc1nc(C)n(CC2CN(CC(=O)Nc3nccs3)CCO2)n1 (stereo unspecified)	-3.11%
